We go through one compound from patent publication US9226919B2, “Methods for dosing an orally active 1,2,4-oxadiazole” (PTC Therapeutics, Inc., priority 2006, dated 2016).

Like-named read-outs stand apart in the source and are kept apart here.

In data set [1] the test system is serum CK. In words: Serum CK levels, Phase 2 DMD study. The class given is in vivo, human. The note with it: majority of subjects at 4-, 8-, 10-, 20-, 40-mg/kg dose levels (p=0.03, 0.002, 0.001). The method, then: Serum CK activity is assessed using a commercially available NADH-linked kinetic assay (Diagnostic Chemicals Ltd., Oxford, Conn.). Serum CK levels are measured prior to treatment, on day 1 (prior to first dose), day 7, day 14, day 21, and day 27 during the treatment period, and on day 42 and day 56 after treatment. Serum CK is increased in Duchenne muscular dystrophy and therefore is a readily measurable diagnostic marker for the disease and may serve as a potential biomarker for the pharmacological activity of the drug (Mendell et al., 1989, New Eng. J. Med. 320(24):1592-1597).
Pre-treatment of primary muscle cells from 24 of the 26 boys in the first 2 cohorts were available for in vitro myotube culture. […] These changes were statistically significant (p=0.03, p=0.002, p=0.001 for low-, middle- and high doses, respectively). The return of mean values toward baseline upon cessation of treatment provided additional support for pharmacological activity.

The test system of data set [2] is dystrophin. In words: In vitro myotube culture of patients' primary muscle cells, dystrophin expression. The class given is cell-based, human. The procedure:
Studies are performed on muscle tissue and skin from patients to determine whether dystrophin production in primary muscle cultures from the patients corresponds with dystrophin production in vivo. […] Correlations of skin cell response with clinical activity may offer an easy-to-obtain predictive test in selecting future patients for therapy or for screening new agents for the treatment of DMD. Cells are cultured as follows. Biopsy material is stored during transport in human proliferation medium (or PBS), and on ice for longer time periods if necessary. If the tissue is not prepared within 24 hours, the material can be frozen in human proliferation medium containing 10% DMSO and stored in liquid nitrogen (or dry ice). At the time the tissue is to be prepared for setting up the myoblast culture, biopsy material is washed in PBS. PBS sufficient to keep the tissue moist is added into a culture dish. The biopsy material is minced thoroughly with razor blades, toward an almost homogeneous suspension. Approximately 2 ml of collegenase/dispase/CaCl2 solution per gram of tissue is added and mincing is continued for several minutes (e.g. for a muscle biopsy of 5×5×5 mm use 1 ml of enzyme solution). […] The myogenic cell content of the culture is determined by performing a desmin-staining. […]

A short description of data set [3]: Plasma pharmacokinetics, Phase 2 Duchenne muscular dystrophy study. The class given is in vivo, human. The note with it: for AUC(0-t) / Cmax: human, oral. From the text:
FIG. 1 provides the plasma 3-[5-(2-fluoro-phenyl)-[1,2,4]oxadiazol-3-yl]-benzoic acid concentration-time profiles and PK parameters from 37 of 38 patients in a Phase 2 Duchenne muscular dystrophy study at 4-, 4-, and 8-mg/kg; 10-, 10-, and 20-mg/kg; and 20-, 20- and 40-mg/kg dose levels. The data from one patient was excluded from analysis due to insufficient data.
3-[5-(2-Fluoro-phenyl)-[1,2,4]oxadiazol-3-yl]-benzoic acid was provided in a formulation described herein. Treatment was administered over 28 days for each treatment cohort. An initial cohort of patients (n=6) were treated daily for 28 days with 3-[5-(2-fluoro-phenyl)-[1,2,4]oxadiazol-3-yl]-benzoic acid at 4-, 4-, and 8-mg/kg TID. After review of the clinical safety results, a second cohort of patients (n=20) were treated daily for 28 days with 3-[5-(2-fluoro-phenyl)-[1,2,4]oxadiazol-3-yl]-benzoic acid at 10-, 10-, and 20-mg/kg TID. Thus, each patient received a total of 84 doses of 3-[5-(2-fluoro-phenyl)-[1,2,4]oxadiazol-3-yl]-benzoic acid.
Blood for 3-[5-(2-fluoro-phenyl)-[1,2,4]oxadiazol-3-yl]-benzoic acid concentrations is collected immediately pre-dose and at 3 hours after administration of the first daily dose of study drug on the second day of each visit.
The study drug dosing and sample collection times are recorded. If a heparinized venous catheter is used for sample collection in order to avoid repeated needle sticks, at least 2 mL of blood is removed and discarded prior to each sample collection in order to avoid heparin contamination of the sample. All attempts are made to collect the blood samples at, or within ±5 minutes of, the scheduled time. The timing of the blood draw is in relation to the study drug dosing time.
Each sample comprises 2 mL of venous blood drawn into a 5-mL Vacutainer® or equivalent tube with K3-EDTA as the anticoagulant. Immediately after collection, the tube is gently inverted 8 to 10 times to mix the anticoagulant with the blood sample. The tube is stored upright on ice until centrifugation; centrifugation and sample processing are performed within 1 hour of sample collection. The plasma fraction is separated by placing the collection tube into a refrigerated centrifuge (4 to 8° C.) in a horizontal rotor (with a swing-out head) for a minimum of 15 minutes at 1500 to 1800 relative centrifugal force (RCF). The plasma fraction is withdrawn by pipette and divided into 2 polypropylene freezing tubes (with each tube receiving approximately equal aliquots). All sample collection and freezing tubes are clearly labeled in a fashion that identifies the subject, the study period, and the collection date and time. Labels are fixed to freezing tubes in a manner that will prevent the label from becoming detached after freezing. After processing, samples are placed into a freezer at approximately −20° C. (or lower).
Samples are stored for analysis of 3-[5-(2-fluoro-phenyl)-[1,2,4]oxadiazol-3-yl]-benzoic acid at the end of the study using a validated high performance liquid chromatography with tandem mass spectrometry (HPLC/MS-MS) method. Thereafter, samples are retained for potential later analyses.

The mark [4] stands for this setting: 10, 10, 20 mg/kg TID, N = 20, mean.
Setting [5] is: 20, 20, 40 mg/kg TID, N = 11, mean.

Broadly, the Cmax is the peak of the concentration-time curve. Take `O=C(O)c1cccc(-c2noc(-c3ccccc3F)n2)c1` [3-[5-(2-fluoro-phenyl)-[1,2,4]oxadiazol-3-yl]-benzoic acid]: in data set [1], the “Serum CK, end-of-treatment versus pretreatment values” is given as “decreases in CK”. For the same compound, in data set [2] (cultured in the presence of the compound), the “Dystrophin expression in myotube cultures” value is “dose-dependent increase in dystrophin expression”. For the same compound, in data set [2] (myotube culture of pre-treatment primary muscle cells of individual DMD patients), the “In Vitro Expression Response (dystrophin)” value was “Yes”. For the same compound, the “Cmin, Day 1” value amounted to 500 ng/mL in data set [3] (4, 4, 8 mg/kg TID, N = 6, mean); 3800 ng/mL in data set [3] (setting [4]); 9600 ng/mL in data set [3] (setting [5]). Further, the “Cmin, Day 28” value was determined as 600 ng/mL in data set [3] (4, 4, 8 mg/kg TID, N = 6, mean); 3400 ng/mL in data set [3] (setting [4]); 6700 ng/mL in data set [3] (setting [5]). Also, the AUC(0-t) in data set [3] (8 mg/kg, 4, 4, 8 mg/kg TID, N = 6, mean, read-out: AUC0-24, Day 1) stood at 87 µg·h/mL; in data set [3] (8 mg/kg, 4, 4, 8 mg/kg TID, N = 6, mean, read-out: AUC0-24, Day 28), 91 µg·h/mL; in data set [3] (20 mg/kg, 10, 10, 20 mg/kg TID, N = 20, mean, read-out: AUC0-24, Day 1), 291 µg·h/mL; in data set [3] (20 mg/kg, 10, 10, 20 mg/kg TID, N = 20, mean, read-out: AUC0-24, Day 28), 235 µg·h/mL; in data set [3] (40 mg/kg, 20, 20, 40 mg/kg TID, N = 11, mean, read-out: AUC0-24, Day 1), 866 µg·h/mL; in data set [3] (40 mg/kg, 20, 20, 40 mg/kg TID, N = 11, mean, read-out: AUC0-24, Day 28) it was 490 µg·h/mL. Also, the Cmax in data set [3] (8 mg/kg, 4, 4, 8 mg/kg TID, N = 6, mean, read-out: Cmax, Day 1) came to 10000 ng/mL; in data set [3] (8 mg/kg, 4, 4, 8 mg/kg TID, N = 6, mean, read-out: Cmax, Day 28), 11000 ng/mL; in data set [3] (20 mg/kg, 10, 10, 20 mg/kg TID, N = 20, mean, read-out: Cmax, Day 1), 27000 ng/mL; in data set [3] (20 mg/kg, 10, 10, 20 mg/kg TID, N = 20, mean, read-out: Cmax, Day 28) it was 22000 ng/mL; in data set [3] (40 mg/kg, 20, 20, 40 mg/kg TID, N = 11, mean, read-out: Cmax, Day 1) it was 76000 ng/mL; in data set [3] (40 mg/kg, 20, 20, 40 mg/kg TID, N = 11, mean, read-out: Cmax, Day 28) it was 46000 ng/mL.
